These results are taken from patent US11459329B2, “Imidazopyridazine and imidazopyridine compounds and uses thereof” (Incyte Corporation, priority 2018, dated 2022).

Where only a bound is given, the exact number is not on record here.

For one assay, the target named is ALK2 (aa 147-end) (Homo sapiens (Human), UniProt Q04771). Nature of the assay: ALK2 HTRF Assay. It counts as biochemical. The following applies: 3 μM ATP, 0.5 nM ALK2, 2 hr, 25° C.; read-out: ALK2 IC50. The procedure: The enzymatic assays were conducted in white 384-well polystyrene plates in a final volume of 8 μL. The inhibitors were serially diluted in DMSO and added to the plate wells prior to addition of the other reaction components. The assays were carried out at 25° C. in the assay buffer (50 mM HEPES, pH 7.0, 10% Glycerol, 0.01% Brij50, 10 mM MgCl2, 1 mM EGTA, 5 mM DTT, and 0.01% BSA), containing 50 nM LANCE Ultra ULight™-DNA Topoisomerase 2-alpha peptide (Perkin Elmer TRF0130), and 3 μM ATP. The final concentration of DMSO in the assay was 1% and the enzyme concentration was 0.5 nM for ALK2. […] […] IC50 determination was performed by fitting percent control activity versus the log of the inhibitor concentration using the IDBS XLFit and GraphPad Prism 5.0 software.
ALK2 (aa 147-end), sequence (Q04771 147-509): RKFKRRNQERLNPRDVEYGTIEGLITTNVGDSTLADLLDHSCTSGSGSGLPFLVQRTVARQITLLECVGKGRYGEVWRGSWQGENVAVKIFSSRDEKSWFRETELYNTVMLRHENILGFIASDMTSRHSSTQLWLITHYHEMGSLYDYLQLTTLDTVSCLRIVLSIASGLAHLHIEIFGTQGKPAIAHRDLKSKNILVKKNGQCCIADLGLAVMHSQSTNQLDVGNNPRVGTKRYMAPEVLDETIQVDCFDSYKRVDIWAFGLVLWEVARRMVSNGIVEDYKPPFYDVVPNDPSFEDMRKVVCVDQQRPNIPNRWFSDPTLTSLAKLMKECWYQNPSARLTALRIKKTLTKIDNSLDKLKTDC
A general note: TR-FRET usually uses a lanthanide donor and a delayed reading to cut background.
By IC50 is commonly meant the concentration that gives 50% inhibition. Take `Cc1cc(-c2ccc3c(-c4cnc5cc(-c6ccc(CN7CCOCC7)cc6)c(C)nn45)ccnc3n2)n[nH]1` [Example 49, 4-(4-(6-methyl-3-(7-(5-methyl-1H-pyrazol-3-yl)-1,8-naphthyridin-4-yl)imidazo[1,2-b]pyridazin-7-yl)benzyl)morpholine]: the IC50 was less than 1 nM. The same measure, in the same setting: under `Cc1nn2c(-c3ccnc4nc(-c5ncccn5)ccc34)cnc2cc1-c1cnn(C(C)C)c1` [Example 40, 5-(7-(1-Isopropyl-1H-pyrazol-4-yl)-6-methylimidazo[1,2-b]pyridazin-3-yl)-2-(pyrimidin-2-yl)-1,8-naphthyridine] stands less than 1 nM. Turning to `Cc1nn2c(-c3ccnc4ccccc34)cnc2cc1-c1ccc(N2CCNCC2)cc1` [Example 1, 4-(6-Methyl-7-(4-(piperazin-1-yl)phenyl)imidazo[1,2-b]pyridazin-3-yl)quinoline], the IC50 was less than 1 nM. Same read-out and setting: under `Cc1nn2c(-c3ccnc4nc(-c5ccn(C)n5)ccc34)cnc2cc1-c1ccc(C(=O)N(C)C)cc1` [Example 47, N,N-dimethyl-4-(6-methyl-3-(7-(1-methyl-1H-pyrazol-3-yl)-1,8-naphthyridin-4-yl)imidazo[1,2-b]pyridazin-7-yl)benzamide] stands 1 to 5 nM; under `Cc1cnn(-c2ccc3c(-c4cnc5cc(-c6ccc(CN7CCOCC7)cc6)c(C)nn45)ccnc3n2)n1` [Example 64, 4-(4-(6-Methyl-3-(7-(4-methyl-2H-1,2,3-triazol-2-yl)-1,8-naphthyridin-4-yl)imidazo[1,2-b]pyridazin-7-yl)benzyl)morpholine], 1 to 5 nM. For the compound `CCn1cnc(-c2ccc3c(-c4cnc5cc(-c6ccc(CN(C)C)cc6)c(C)nn45)ccnc3n2)c1` [Example 54, 1-(4-(3-(7-(1-Ethyl-1H-imidazol-4-yl)-1,8-naphthyridin-4-yl)-6-methylimidazo[1,2-b]pyridazin-7-yl)phenyl)-N,N-dimethylmethanamine], the 50% inhibitory concentration (IC50) is less than 1 nM. For `CCn1cnc(-c2ccc3c(-c4cnc5cc(-c6ccc(CN7CCO[C@@H](C)C7)cc6)c(C)nn45)ccnc3n2)c1` [Example 58, (S)-4-(4-(3-(7-(1-ethyl-1H-imidazol-4-yl)-1,8-naphthyridin-4-yl)-6-methylimidazo[1,2-b]pyridazin-7-yl)benzyl)-2-methylmorpholine], the IC50 was less than 1 nM. Still for that read-out and setting: under `Cc1nn2c(-c3ccnc4nc(-c5cnccn5)ccc34)cnc2cc1-c1cnn([C@H]2CC[C@H](O)CC2)c1` [Example 41, (1R,4R)-4-(4-(6-Methyl-3-(7-(pyrazin-2-yl)-1,8-naphthyridin-4-yl)imidazo[1,2-b]pyridazin-7-yl)-1H-pyrazol-1-yl)cyclohexan-1-ol] stands 1 to 5 nM; under `N#Cc1nn2c(-c3ccnc4ccccc34)cnc2cc1-c1ccc(N2CCNCC2)cc1` [Example 6, 7-(4-(piperazin-1-yl)phenyl)-3-(quinolin-4-yl)imidazo[1,2-b]pyridazine-6-carbonitrile], less than 1 nM; under `Cc1nn2c(-c3ccnc4c3OCCO4)cnc2cc1-c1ccc(N2CCNCC2)cc1` [Example 29, 8-(6-methyl-7-(4-(piperazin-1-yl)phenyl)imidazo[1,2-b]pyridazin-3-yl)-2,3-dihydro-[1,4]dioxino[2,3-b]pyridine], less than 1 nM. Consider `NC(=O)c1nn2c(-c3ccnc4ccccc34)cnc2cc1-c1ccc(N2CCNCC2)cc1` [Example 5, 7-(4-(Piperazin-1-yl)phenyl)-3-(quinolin-4-yl)imidazo[1,2-b]pyridazine-6-carboxamide], for which the IC50 was 5 to 100 nM. Still for that read-out and setting: with `Cc1cnn(-c2ccc3c(-c4cnc5cc(-c6ccc(CN7CCC(C)(O)CC7)cc6)c(C)nn45)ccnc3n2)n1` [Example 68, 4-methyl-1-(4-(6-methyl-3-(7-(4-methyl-2H-1,2,3-triazol-2-yl)-1,8-naphthyridin-4-yl)imidazo[1,2-b]pyridazin-7-yl)benzyl)piperidin-4-ol] the figure was less than 1 nM; with `Cc1nn2c(-c3ccnc4cc(CN5CCOCC5)ccc34)cnc2cc1-c1ccc(N2CCNCC2)cc1` [Example 24, 4-((4-(6-methyl-7-(4-(piperazin-1-yl)phenyl)imidazo[1,2-b]pyridazin-3-yl)quinolin-7-yl)methyl)morpholine], 5 to 100 nM.

Another assay has as its system ALK2 mutant DIPG cell.
Assay: not given
The following applies: ALK2 mutant DIPG cells; cited from earlier work.
In the case of `c1ccc2c(-c3cnn4cc(-c5ccc(N6CCNCC6)cc5)cnc34)ccnc2c1` [LDN-19318917], the “inhibition of ALK2 mutant DIPG cell viability” value is on record as “significant inhibition”.
